Tests used:
[1] = target: Voltage-gated inwardly rectifying potassium channel KCNH2 (Homo sapiens, UniProt Q12809); experiment: Displacement of Tracer Red from human ERG by fluorescence polarization assay
[2] = target: Chitotriosidase-1 (Mus musculus, UniProt Q9D7Q1); experiment: Inhibition of full-length C-terminal his-tagged mouse CHIT1 expressed in CHO-K1 cells assessed as reduction in chitinolytic activity using 4-methylumbelliferyl-beta-D-N,N',N\"-triacetylchitotrioside as substrate after 60 mins by fluorometric assay; type: cell-based
Chitotriosidase-1 (Mus musculus, UniProt Q9D7Q1), sequence (Q9D7Q1 whole entry): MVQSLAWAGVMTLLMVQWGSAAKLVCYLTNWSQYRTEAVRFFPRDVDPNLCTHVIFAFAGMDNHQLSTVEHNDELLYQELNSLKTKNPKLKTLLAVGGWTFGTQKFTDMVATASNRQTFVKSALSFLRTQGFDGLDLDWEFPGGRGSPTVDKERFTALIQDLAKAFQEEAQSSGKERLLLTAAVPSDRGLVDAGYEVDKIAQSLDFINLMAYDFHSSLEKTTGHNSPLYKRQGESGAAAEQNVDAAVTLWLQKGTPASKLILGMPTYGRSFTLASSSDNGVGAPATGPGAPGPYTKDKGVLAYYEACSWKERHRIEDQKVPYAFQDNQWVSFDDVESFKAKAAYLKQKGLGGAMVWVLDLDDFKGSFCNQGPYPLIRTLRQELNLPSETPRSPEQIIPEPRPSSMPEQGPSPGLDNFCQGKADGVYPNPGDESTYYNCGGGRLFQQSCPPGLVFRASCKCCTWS

[3] = target: Acidic mammalian chitinase (Mus musculus, UniProt Q91XA9); experiment: Inhibition of full-length C-terminal his-tagged mouse acidic mammalian chitinase expressed in CHO-K1 cells assessed as reduction in chitinolytic activity using 4-methylumbelliferyl-beta-D-N,N'-diacetylchitobioside hydrate as substrate after 60 mins by fluorometric assay
Acidic mammalian chitinase (Mus musculus, UniProt Q91XA9), sequence (Q91XA9 whole entry): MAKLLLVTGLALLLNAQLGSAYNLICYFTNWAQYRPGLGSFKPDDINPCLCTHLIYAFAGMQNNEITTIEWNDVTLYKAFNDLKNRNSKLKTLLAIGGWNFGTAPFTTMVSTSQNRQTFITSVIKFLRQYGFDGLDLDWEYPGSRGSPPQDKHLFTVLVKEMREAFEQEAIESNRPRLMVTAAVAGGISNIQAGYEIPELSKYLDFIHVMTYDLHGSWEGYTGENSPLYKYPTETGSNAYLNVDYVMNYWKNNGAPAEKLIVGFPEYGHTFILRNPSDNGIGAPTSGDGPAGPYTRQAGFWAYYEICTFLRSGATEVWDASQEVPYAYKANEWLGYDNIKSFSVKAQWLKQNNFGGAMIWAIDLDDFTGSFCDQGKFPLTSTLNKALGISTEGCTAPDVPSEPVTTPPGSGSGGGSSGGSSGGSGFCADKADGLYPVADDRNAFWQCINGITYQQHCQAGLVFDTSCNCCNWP

[4] = target: Chitotriosidase-1 (Homo sapiens, UniProt Q13231); experiment: Inhibition of full-length C-terminal his-tagged human CHIT1 expressed in CHOK1 cells assessed as reduction in chitinolytic activity using 4-methylumbelliferyl-beta-D-N,N',N\"-triacetylchitotrioside as substrate after 60 mins by fluorometric assay; type: cell-based
Chitotriosidase-1 (Homo sapiens, UniProt Q13231), sequence (Q13231 whole entry): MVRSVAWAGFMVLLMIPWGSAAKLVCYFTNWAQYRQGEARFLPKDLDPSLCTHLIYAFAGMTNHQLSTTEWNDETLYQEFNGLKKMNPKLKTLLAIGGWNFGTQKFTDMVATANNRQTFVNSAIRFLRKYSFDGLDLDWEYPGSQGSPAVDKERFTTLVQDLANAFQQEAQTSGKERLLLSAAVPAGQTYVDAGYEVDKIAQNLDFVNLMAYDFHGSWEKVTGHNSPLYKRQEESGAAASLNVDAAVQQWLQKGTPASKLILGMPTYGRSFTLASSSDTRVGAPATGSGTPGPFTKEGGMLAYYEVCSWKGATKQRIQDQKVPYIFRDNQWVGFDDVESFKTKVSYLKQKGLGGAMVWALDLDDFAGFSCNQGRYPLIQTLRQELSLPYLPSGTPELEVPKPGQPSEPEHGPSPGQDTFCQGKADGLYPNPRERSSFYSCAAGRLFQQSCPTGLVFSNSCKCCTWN

[5] = target: dopamine transporter (DAT) (Homo sapiens, UniProt Q01959); experiment: Displacement of [3H]BTCP from recombinant human dopamine transporter at 10 uM after 120 mins by scintillation counting analysis relative to control; type: ADME; settings: probe [3H]BTCP
dopamine transporter (DAT), sequence (Q01959 whole entry): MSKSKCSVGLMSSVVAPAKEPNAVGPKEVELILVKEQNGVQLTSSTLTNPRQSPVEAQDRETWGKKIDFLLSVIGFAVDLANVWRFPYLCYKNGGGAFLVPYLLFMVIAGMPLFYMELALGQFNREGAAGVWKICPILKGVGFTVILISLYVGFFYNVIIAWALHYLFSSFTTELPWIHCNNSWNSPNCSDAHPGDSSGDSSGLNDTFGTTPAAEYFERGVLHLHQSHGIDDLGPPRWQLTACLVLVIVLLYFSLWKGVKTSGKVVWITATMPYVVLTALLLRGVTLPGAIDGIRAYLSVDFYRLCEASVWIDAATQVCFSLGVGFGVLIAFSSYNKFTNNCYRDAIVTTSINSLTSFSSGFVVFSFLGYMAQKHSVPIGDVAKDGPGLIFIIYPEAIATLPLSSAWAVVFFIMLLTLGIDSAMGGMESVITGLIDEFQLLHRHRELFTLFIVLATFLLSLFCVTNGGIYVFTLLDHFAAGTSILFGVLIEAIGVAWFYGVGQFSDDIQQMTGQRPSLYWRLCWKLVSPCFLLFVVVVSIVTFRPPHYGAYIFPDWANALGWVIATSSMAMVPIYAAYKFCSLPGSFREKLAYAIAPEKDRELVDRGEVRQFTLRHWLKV

[6] = Lipophilicity, logD of the compound at pH 7.4; type: physicochemical; settings: buffer
[7] = target: Acidic mammalian chitinase (Homo sapiens, UniProt Q9BZP6); experiment: Inhibition of full-length C-terminal his-tagged human acidic mammalian chitinase expressed in CHOK1 cells assessed as reduction in chitinolytic activity using 4-methylumbelliferyl-beta-D-N,N-diacetylchitobioside hydrate as substrate after 60 mins by fluorometric assay
Acidic mammalian chitinase (Homo sapiens, UniProt Q9BZP6), sequence (Q9BZP6 whole entry): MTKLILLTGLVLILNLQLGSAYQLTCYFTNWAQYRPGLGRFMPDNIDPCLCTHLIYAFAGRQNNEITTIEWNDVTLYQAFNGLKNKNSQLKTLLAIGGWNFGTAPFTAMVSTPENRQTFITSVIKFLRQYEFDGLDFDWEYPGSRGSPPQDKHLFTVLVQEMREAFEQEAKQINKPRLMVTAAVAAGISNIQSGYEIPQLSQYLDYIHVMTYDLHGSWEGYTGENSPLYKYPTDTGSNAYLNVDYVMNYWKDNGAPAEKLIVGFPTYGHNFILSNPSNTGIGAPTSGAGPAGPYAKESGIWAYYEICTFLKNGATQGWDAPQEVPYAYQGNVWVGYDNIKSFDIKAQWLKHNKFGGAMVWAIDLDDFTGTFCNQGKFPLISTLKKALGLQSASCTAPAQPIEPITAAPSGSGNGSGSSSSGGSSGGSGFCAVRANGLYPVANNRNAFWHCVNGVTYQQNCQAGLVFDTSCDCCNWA

Voltage-gated inwardly rectifying potassium channel KCNH2, sequence (Q12809 whole entry): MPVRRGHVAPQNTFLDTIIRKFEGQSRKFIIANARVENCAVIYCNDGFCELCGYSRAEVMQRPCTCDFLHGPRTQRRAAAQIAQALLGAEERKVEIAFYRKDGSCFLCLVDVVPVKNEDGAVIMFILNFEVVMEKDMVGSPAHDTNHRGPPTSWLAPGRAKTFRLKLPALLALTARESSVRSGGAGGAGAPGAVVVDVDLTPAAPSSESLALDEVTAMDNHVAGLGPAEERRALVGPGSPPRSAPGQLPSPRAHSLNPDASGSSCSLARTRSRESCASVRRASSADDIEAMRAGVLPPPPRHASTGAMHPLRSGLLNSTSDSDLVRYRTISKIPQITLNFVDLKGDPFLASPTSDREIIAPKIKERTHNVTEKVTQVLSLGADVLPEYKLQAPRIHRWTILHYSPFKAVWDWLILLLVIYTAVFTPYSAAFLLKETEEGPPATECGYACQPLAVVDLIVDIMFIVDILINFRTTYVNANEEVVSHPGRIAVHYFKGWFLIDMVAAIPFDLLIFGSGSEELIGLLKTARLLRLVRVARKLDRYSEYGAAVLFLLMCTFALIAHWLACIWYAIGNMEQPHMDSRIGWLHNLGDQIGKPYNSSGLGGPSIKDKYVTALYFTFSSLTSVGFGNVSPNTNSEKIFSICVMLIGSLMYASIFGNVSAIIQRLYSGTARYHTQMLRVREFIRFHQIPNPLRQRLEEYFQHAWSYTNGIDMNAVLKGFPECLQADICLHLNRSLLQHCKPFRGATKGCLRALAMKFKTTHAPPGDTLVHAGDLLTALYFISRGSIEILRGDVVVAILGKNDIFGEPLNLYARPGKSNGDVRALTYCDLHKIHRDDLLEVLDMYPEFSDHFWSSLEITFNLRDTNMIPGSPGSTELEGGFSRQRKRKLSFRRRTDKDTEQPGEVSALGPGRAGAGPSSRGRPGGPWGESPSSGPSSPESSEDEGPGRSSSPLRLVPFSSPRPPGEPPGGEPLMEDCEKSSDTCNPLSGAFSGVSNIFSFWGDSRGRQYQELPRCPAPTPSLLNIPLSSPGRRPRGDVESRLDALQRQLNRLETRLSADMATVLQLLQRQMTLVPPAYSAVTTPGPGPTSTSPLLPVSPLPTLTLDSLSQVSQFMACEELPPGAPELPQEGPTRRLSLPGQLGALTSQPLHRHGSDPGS

CC(=O)NCCN(CCc1ccc(Cl)cc1)C1CCN(c2nc(N)n[nH]2)CC1
IC50 [1]: 3.3 µM | IC50 [2]: 8.1 µM | IC50 [3]: 0.035 µM | IC50 [4]: 0.495 µM

CO[C@@H](C)CN(CCc1ccc(Cl)cc1)C1CCN(c2nc(N)n[nH]2)CC1
inhibition at 2 h, 10 µM [5]: 33% | IC50 [1]: 17.6 µM | IC50 [2]: 1.15 µM | IC50 [3]: 0.053 µM | IC50 [4]: 0.044 µM

COCCN(CCc1ccc(Cl)cc1)C1CCN(c2nc(N)n[nH]2)CC1
IC50 [1]: 2.8 µM | IC50 [2]: 1.7 µM | IC50 [3]: 0.055 µM | IC50 [4]: 0.084 µM

CNC(=O)CN(CCc1ccc(Cl)cc1)C1CCN(c2nc(N)n[nH]2)CC1
IC50 [1]: 2.6 µM | IC50 [2]: 48 µM | IC50 [3]: 1.15 µM | IC50 [4]: 1.8 µM

CO[C@H]1C[C@H](Cc2ccc(Cl)cc2)N(C2CCN(c3nnc(N)[nH]3)CC2)C1
logD [6]: 1.6 | inhibition at 2 h, 10 µM [5]: 59% | IC50 [2]: 0.345 µM | IC50 [3]: 0.065 µM | IC50 [4]: 0.047 µM

Nc1n[nH]c(N2CCC(N(CCc3ccc(Cl)cc3)CC3CCCO3)CC2)n1 (centres undefined)
inhibition at 2 h, 10 µM [5]: 74% | IC50 [1]: 15 µM | IC50 [2]: 1.08 µM | IC50 [3]: 0.017 µM | IC50 [4]: 0.027 µM

Nc1n[nH]c(N2CCC(N(CCc3ccc(Cl)cc3)CC(=O)O)CC2)n1
IC50 [1]: 8 µM | IC50 [2]: 21 µM | IC50 [3]: 0.395 µM | IC50 [4]: 1.9 µM

COC(C)(C)CN(CCc1ccc(Cl)cc1)C1CCN(c2nc(N)n[nH]2)CC1
IC50 [1]: 3.5 µM | IC50 [2]: 3.65 µM | IC50 [4]: 0.505 µM

Nc1nc(N2CCC(N3C[C@H](O)C[C@@H]3Cc3ccc(Cl)cc3)CC2)n[nH]1
logD [6]: 0.68 | IC50 [1]: 55 µM | IC50 [2]: 0.135 µM | IC50 [3]: 0.068 µM

CNC(=O)NCCN(CCc1ccc(Cl)cc1)C1CCN(c2nc(N)n[nH]2)CC1
IC50 [1]: 1.8 µM | IC50 [2]: 9.1 µM | IC50 [3]: 0.13 µM | IC50 [4]: 1.43 µM

Nc1n[nH]c(N2CCC(N(CCO)CCc3ccc(Cl)cc3)CC2)n1
IC50 [1]: 6.3 µM | IC50 [2]: 4.8 µM | IC50 [3]: 0.135 µM | IC50 [4]: 0.384 µM

Nc1nnc(N2CCC(N3CCCC[C@@H]3Cc3ccc(Cl)cc3)CC2)[nH]1
logD [6]: 1.41 | IC50 [1]: 8.3 µM | IC50 [2]: 0.087 µM | IC50 [3]: 0.081 µM | IC50 [4]: 0.041 µM | IC50 [7]: 0.023 µM

Nc1n[nH]c(N2CCC(N3CCC(c4ccc(Cl)cc4)C3)CC2)n1 (centres undefined)
IC50 [2]: 37 µM | IC50 [3]: 2.6 µM | IC50 [4]: 19.5 µM

Nc1nnc(N2CCC(N3CCC[C@@H]3Cc3ccc(Cl)cc3)CC2)[nH]1
logD [6]: 1.15 | IC50 [1]: 4 µM | IC50 [2]: 0.43 µM | IC50 [3]: 0.12 µM

Source: ChEMBL document CHEMBL4311945, “Development of Dual Chitinase Inhibitors as Potential New Treatment for Respiratory System Diseases” (J Med Chem, 2019)
